Measurements: ChEMBL document CHEMBL1201862, “PubChem BioAssay data set” (2004)
Calls of active or inactive are those of the source.

What was measured:
[1] = CRF-BP/CRF-R2 complex antagonists, dose response, cell-based, uHTS hits, 384-well (AID 651639); format: functional, Homo sapiens; settings: read-out: IC50_Mean
[2] = molecular target: T1, Corticotropin-releasing factor receptor 2/Corticotropin-releasing factor-binding protein (Homo sapiens, UniProt P24387+Q13324); assay: activators of CRF receptor 2 with binding protein – uHTS hits, confirmation (AID 602473); format: functional; settings: read-out: EC50_Mean
T1 sequence (Q13324 whole entry): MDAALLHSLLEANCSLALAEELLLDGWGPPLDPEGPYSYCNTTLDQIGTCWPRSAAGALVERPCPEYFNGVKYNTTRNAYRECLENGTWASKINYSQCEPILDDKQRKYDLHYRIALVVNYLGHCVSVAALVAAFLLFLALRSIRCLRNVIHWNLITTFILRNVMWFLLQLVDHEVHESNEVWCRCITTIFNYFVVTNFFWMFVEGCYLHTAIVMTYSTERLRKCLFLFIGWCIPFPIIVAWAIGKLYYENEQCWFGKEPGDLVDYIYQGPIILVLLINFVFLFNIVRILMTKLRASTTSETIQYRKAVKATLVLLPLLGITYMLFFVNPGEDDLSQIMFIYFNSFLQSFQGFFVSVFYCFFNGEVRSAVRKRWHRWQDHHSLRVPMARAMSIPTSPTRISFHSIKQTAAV
T1 sequence (P24387 whole entry): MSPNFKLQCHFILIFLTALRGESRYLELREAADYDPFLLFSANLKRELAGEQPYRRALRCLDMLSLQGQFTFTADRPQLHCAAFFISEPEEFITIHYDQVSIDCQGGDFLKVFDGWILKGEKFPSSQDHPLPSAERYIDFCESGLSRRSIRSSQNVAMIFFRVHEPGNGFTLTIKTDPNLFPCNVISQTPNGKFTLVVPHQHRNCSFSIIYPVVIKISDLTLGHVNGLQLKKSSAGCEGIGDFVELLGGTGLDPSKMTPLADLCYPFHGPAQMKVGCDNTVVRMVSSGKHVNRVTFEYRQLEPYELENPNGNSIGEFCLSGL

[3] = molecular target: T1, Corticotropin-releasing factor receptor 2/Corticotropin-releasing factor-binding protein; assay: Dose Response confirmation of uHTS hits for small molecule antagonists of the CRF-binding protein and CRF-R2 receptor complex.; format: functional; settings: read-out: IC50_Mean
Interleukin-8 = molecular target: T2, Interleukin-8 (Homo sapiens, UniProt P10145); assay: Dose Response confirmation of uHTS small molecule hits for cystic fibrosis induced NFkb Inhibitors in a PAF-induced IL8 counterscreen.; format: functional; settings: read-out: IC50_Mean
T2 sequence (P10145 whole entry): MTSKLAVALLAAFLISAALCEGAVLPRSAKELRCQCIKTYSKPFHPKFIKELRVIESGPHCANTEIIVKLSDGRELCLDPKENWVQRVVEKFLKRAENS

[4] = molecular target: ADP-ribosylation factor GTPase-activating protein 1 (Rattus norvegicus, UniProt Q62848); assay: Fluorescence polarization-based biochemical high throughput dose response screening assay to identify inhibitors of ADP-ribosylation factor GTPase activating protein 1 (ARFGAP1).; format: functional
Sequence of ADP-ribosylation factor GTPase-activating protein 1 (Q62848 whole entry): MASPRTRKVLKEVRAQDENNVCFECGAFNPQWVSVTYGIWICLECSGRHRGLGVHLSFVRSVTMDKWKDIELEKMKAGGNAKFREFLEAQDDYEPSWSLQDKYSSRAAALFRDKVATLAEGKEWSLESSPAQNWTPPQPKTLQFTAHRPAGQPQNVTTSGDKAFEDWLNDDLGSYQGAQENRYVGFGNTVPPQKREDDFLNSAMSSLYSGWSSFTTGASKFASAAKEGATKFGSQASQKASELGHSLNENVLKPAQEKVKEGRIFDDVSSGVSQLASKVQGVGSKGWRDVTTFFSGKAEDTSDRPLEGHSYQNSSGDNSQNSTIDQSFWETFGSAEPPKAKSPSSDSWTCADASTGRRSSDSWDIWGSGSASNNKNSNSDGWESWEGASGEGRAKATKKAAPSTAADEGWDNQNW

[5] = molecular target: T3, DNA repair and recombination protein RAD54-like (Homo sapiens, UniProt Q92698); assay: inhibitors of human RAD54 branch migration, confirmation, biochemical, fluorescence, cherry-picked samples, dose series (AID 651657); format: functional
T3 sequence (Q92698 whole entry): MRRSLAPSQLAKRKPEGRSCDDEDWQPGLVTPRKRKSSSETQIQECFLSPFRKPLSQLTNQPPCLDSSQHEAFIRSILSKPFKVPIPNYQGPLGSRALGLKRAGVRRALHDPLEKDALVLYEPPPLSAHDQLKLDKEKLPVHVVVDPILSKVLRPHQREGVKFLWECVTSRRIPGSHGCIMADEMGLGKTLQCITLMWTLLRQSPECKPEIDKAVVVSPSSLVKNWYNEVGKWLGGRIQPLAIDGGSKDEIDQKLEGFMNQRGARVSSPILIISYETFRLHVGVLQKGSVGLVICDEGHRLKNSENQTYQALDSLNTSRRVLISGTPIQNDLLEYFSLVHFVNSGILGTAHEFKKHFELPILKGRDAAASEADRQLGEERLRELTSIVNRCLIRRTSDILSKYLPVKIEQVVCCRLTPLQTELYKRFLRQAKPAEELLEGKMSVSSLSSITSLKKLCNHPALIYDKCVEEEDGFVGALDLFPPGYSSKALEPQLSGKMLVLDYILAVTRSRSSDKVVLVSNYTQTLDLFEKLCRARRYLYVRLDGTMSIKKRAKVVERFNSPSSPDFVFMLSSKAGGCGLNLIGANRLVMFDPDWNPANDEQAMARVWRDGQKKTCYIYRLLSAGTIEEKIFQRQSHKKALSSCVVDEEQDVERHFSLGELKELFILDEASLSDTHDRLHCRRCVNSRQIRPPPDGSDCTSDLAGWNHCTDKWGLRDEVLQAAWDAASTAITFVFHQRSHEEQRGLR

[6] = cytotoxicity toward NIH3T3 fibroblasts, dose response, counter-screen, cell-based, ATP luminescence, mouse fibroblasts (AID 2010); format: functional;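 further: cells exposed to compound for about 90 hours before reading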
[7] = THP-1 cell cytotoxicity, dose response, cytotoxicity control for non-replicating M. tuberculosis project (AID 489025); format: functional
[8] = inhibitors of intracellular T. cruzi replication, confirmation, NIH3T3 host cells, beta-gal luminescence (AID 2044); format: functional, cell-based;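 further: intracellular parasites grown in NIH/3T3 mouse fibroblasts as host cells; luminescent beta-galactosidase reporter signal from transgenic T. cruzi replicating inside host cells; inhibitors lower the luminescence signal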
[9] = MDA-MB-231 cell growth inhibition, dose response, cytotoxicity control for RAD54 inhibitor project, CellTiter-Glo luminescence, cherry-pick (AID 651692); format: functional, cell-based
HEK293 [10] = assay: HEK cell cytotoxicity by LDH release, dose response, cytotoxicity control for IDE activator project, fluorescence, HEK cells (AID 588440); format: functional, cell-based; settings: Homo sapiens;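 further: cytotoxicity by LDH release measuring loss of membrane integrity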
Insulin-degrading enzyme [11] = molecular target: T4, Insulin-degrading enzyme (Homo sapiens, UniProt P14735); assay: activators of endogenous IDE in HEK cells, dose response, cell-based, fluorescence polarization (AID 588439); format: functional
T4 sequence (P14735 whole entry): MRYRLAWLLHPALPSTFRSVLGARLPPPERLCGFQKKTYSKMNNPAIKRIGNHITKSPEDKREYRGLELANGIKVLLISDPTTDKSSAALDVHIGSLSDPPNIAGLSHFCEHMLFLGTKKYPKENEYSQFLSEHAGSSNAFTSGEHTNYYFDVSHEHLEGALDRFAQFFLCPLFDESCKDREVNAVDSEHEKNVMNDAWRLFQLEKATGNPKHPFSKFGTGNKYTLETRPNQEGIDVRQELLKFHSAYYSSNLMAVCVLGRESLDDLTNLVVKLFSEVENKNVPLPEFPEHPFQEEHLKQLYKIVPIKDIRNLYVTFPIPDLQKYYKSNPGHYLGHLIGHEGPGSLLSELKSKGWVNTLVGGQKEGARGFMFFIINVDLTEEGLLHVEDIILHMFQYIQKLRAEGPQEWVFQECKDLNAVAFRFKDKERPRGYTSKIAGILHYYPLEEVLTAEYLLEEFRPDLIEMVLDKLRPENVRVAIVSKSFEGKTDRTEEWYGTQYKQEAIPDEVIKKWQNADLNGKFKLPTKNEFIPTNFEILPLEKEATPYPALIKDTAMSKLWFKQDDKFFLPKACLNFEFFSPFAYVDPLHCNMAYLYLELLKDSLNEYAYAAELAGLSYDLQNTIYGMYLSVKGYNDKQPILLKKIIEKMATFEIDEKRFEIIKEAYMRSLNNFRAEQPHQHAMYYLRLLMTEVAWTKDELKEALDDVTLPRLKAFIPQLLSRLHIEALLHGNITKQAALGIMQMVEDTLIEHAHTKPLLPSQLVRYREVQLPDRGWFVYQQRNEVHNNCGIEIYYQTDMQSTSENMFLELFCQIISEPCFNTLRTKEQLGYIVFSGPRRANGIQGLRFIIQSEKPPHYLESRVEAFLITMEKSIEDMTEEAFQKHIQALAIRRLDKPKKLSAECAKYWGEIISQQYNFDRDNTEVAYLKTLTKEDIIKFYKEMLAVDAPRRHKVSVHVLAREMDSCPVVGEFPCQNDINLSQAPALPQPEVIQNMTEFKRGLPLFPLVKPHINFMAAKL

[12] = Luminescence Cell-Based Dose Response HTS to Identify Inhibitors of 5'UTR Stem-Loop Driven Prion Protein mRNA Translation in H4 Neuroglioblastoma Cells. [Related pubchem assays: 1827 (Project Summary), 1813 (Primary HTS)]; format: functional
[13] = inhibitors of firefly luciferase expression or activity, dose response, H4 neuroglioma cells, luminescence (AID 1990); format: functional, cell-based
HEK293 [14] = assay: optical interference in Abeta FP readout, dose response, artefact control for IDE activator project, biochemical, fluorescence polarization (AID 588442); format: functional, cell-based; settings: Homo sapiens
Insulin-degrading enzyme [15] = molecular target: T4, Insulin-degrading enzyme; assay: activators of recombinant IDE enzyme, dose response, counter-screen for IDE activator project, biochemical, fluorescence polarization (AID 588681)
[16] = molecular target: T5, Short transient receptor potential channel 4 (Mus musculus, UniProt Q9QUQ5); assay: mouse TRPC4 channel inhibitors, dose response, cell-based, HEK293 TRPC4/mu-opioid, Fluo-4 calcium (AID 434942); format: functional;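 further: potency of inhibitors blocking the TRPC4 calcium response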
T5 sequence (Q9QUQ5 whole entry): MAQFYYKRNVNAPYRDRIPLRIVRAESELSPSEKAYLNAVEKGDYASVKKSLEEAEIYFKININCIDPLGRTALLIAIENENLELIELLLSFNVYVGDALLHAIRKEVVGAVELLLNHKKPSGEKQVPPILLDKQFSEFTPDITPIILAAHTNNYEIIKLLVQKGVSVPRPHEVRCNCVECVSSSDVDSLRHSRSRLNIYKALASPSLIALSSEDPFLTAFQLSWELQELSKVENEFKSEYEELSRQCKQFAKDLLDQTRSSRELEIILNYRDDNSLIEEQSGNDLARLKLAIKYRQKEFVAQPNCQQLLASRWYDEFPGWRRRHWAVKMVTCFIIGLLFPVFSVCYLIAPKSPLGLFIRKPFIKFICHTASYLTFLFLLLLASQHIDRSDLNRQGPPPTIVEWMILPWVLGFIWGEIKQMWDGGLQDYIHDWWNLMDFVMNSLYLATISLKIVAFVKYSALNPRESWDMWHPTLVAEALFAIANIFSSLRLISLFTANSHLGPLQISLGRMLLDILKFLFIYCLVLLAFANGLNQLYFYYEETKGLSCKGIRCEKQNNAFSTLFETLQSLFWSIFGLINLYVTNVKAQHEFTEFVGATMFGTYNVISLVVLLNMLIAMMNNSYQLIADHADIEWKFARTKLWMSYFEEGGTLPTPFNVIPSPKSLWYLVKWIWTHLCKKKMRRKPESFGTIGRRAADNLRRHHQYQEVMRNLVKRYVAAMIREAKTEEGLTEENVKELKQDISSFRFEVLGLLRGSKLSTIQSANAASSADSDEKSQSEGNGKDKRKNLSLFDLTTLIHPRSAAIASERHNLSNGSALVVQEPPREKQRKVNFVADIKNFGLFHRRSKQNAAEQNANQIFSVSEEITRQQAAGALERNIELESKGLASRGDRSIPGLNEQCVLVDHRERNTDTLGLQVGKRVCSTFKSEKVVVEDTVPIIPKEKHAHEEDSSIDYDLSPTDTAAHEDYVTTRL

[17] = inhibitors of SNCA 5'UTR-driven reporter translation, confirmation, H4 neuroglioma cells, luminescence (AID 1988); format: functional, cell-based

CCc1ccc(-c2cc(C)no2)cc1S(=O)(=O)Nc1ccc(Cl)cn1
IC50 [1]: > 20 µM (inactive) | EC50 [2]: > 53 µM (inactive) | IC50 [3]: 27.5 µM (active)

COCCNc1nc(Oc2cncc(Cl)c2)c2sccc2n1
IC50 (Interleukin-8): 29.2 µM (inactive)

O=C(Cn1c2ccc(F)cc2c2nc3n(c(=O)c21)CCS3)Nc1ccccc1C(F)(F)F
IC50 [4]: 50.1 µM (inactive)

CCN(CC)CCSc1nnc2c3cc(C)ccc3n(Cc3ccccc3)c2n1
AC50 [5]: 31.4 µM (active) | EC50 [6]: > 60 µM (not active) | CC50 [7]: 26.1 µM (active) | EC50 [8]: 0.754 µM (active) | AC50 [9]: 30.6 µM (active)

COc1ccc(/C=C2/SC(=S)N(CCCC(=O)Nc3ccccc3C(=O)O)C2=O)cc1
IC50 (HEK293 [10]): > 89.1 µM (inactive) | EC50 (Insulin-degrading enzyme [11]): > 54.6 µM (inactive) | EC50 [12]: 11.2 µM (active) | EC50 [13]: 11 µM (active) | EC50 (HEK293 [14]): 58.7 µM (inactive) | EC50 (Insulin-degrading enzyme [15]): > 54.6 µM (inactive) | EC50 [16]: 6.68 µM (active) | EC50 [17]: 11.1 µM (active)
